From PubChem BioAssay (NCI)
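Assay format: 96-well plates, 48-hour exposure. TGI: concentration producing complete growth inhibition.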

What was measured:
Assay in all cases: DTP human tumour cell line panel, 48 h
[1] = system: CAKI-1 renal
[2] = system: NCI-H23 lung
[3] = system: CCRF-CEM leukemia
[4] = system: TK-10 renal
[5] = system: SR leukemia
[6] = system: SK-OV-3 ovarian
[7] = system: NCI-H522 lung
[8] = system: SN12C renal
[9] = system: MOLT-4 leukemia
[10] = system: SNB-19 CNS
[11] = system: SF-295 CNS
[12] = system: MDA-N
[13] = system: T-47D breast
[14] = system: HL-60(TB) leukemia
[15] = system: HS 578T breast
[16] = system: SK-MEL-2 melanoma

COc1ccc2[nH]c(Cl)c(/C=C3/C(=O)Nc4cc(C)c(OC)cc43)c2c1
TGI [1]: 21.7 µM
TGI [2]: 19 µM
TGI [3]: 19.1 µM
TGI [4]: 21.3 µM
TGI [5]: > 100 µM
TGI [6]: 9.4 µM
TGI [7]: 9.62 µM
TGI [8]: 20.1 µM
TGI [9]: > 100 µM
TGI [10]: 22.2 µM
TGI [11]: 6 µM
TGI [12]: 3.5 µM
TGI [13]: 30.4 µM
TGI [14]: 6.08 µM
TGI [15]: 20.9 µM
TGI [16]: 7.8 µM

COc1cc(OC)c2c(O)c3c(cc2c1)CC(C)(C)CC3=O
TGI [1]: > 100 µM
TGI [2]: > 100 µM
TGI [3]: > 100 µM
TGI [4]: > 100 µM
TGI [5]: > 100 µM
TGI [6]: > 100 µM
TGI [7]: > 100 µM
TGI [8]: > 100 µM
TGI [9]: > 100 µM
TGI [10]: > 100 µM
TGI [11]: > 100 µM
TGI [12]: > 100 µM
TGI [13]: > 100 µM
TGI [14]: > 100 µM
TGI [15]: > 100 µM
TGI [16]: > 100 µM

O=C1C(NCCc2ccc(O)c(O)c2)=CC(=O)c2ncccc21
TGI [1]: 21.5 µM
TGI [2]: > 78.3 µM
TGI [3]: 60.4 µM
TGI [4]: > 71.6 µM
TGI [5]: > 100 µM
TGI [6]: 38.5 µM
TGI [7]: 7.31 µM
TGI [8]: 34.4 µM
TGI [9]: 34.6 µM
TGI [10]: 45.8 µM
TGI [11]: 28.5 µM
TGI [12]: 4.74 µM
TGI [13]: 65.3 µM
TGI [14]: 60.3 µM
TGI [15]: 45.2 µM
TGI [16]: 21.5 µM

COC(=O)c1ccccc1C#CC#Cc1ccccc1C(=O)OC
TGI [1]: > 10 µM
TGI [2]: > 10 µM
TGI [3]: > 10 µM
TGI [4]: > 10 µM
TGI [5]: > 10 µM
TGI [6]: > 10 µM
TGI [7]: > 10 µM
TGI [8]: > 10 µM
TGI [9]: > 10 µM
TGI [10]: > 10 µM
TGI [11]: > 10 µM
TGI [12]: > 10 µM
TGI [13]: > 10 µM
TGI [14]: 8.25 µM
TGI [15]: > 10 µM
TGI [16]: > 10 µM

O=C1Sc2ccc(Br)cc2C(=O)Sc2ccccc21
TGI [1]: 29.4 µM
TGI [2]: 36 µM
TGI [3]: 7.47 µM
TGI [4]: 38.3 µM
TGI [5]: 4.13 µM
TGI [6]: > 62.9 µM
TGI [7]: 22.1 µM
TGI [8]: 34.8 µM
TGI [9]: 19.9 µM
TGI [10]: 29.5 µM
TGI [11]: 57.5 µM
TGI [12]: 22.8 µM
TGI [13]: 31 µM
TGI [14]: 9.71 µM
TGI [15]: 39.3 µM
TGI [16]: 36.6 µM

COC(=O)C(C)(N=Cc1ccccc1)c1ccccc1 (configuration not stated)
TGI [1]: > 100 µM
TGI [2]: > 100 µM
TGI [3]: > 100 µM
TGI [4]: > 100 µM
TGI [5]: > 100 µM
TGI [6]: > 100 µM
TGI [7]: > 100 µM
TGI [8]: > 100 µM
TGI [9]: > 100 µM
TGI [10]: > 100 µM
TGI [11]: > 100 µM
TGI [12]: > 100 µM
TGI [13]: > 100 µM
TGI [14]: > 100 µM
TGI [15]: > 100 µM
TGI [16]: > 100 µM

Cn1c(=O)c2c(nc3n(Cc4ccccc4)c(=O)c(NCCBr)cn23)n(C)c1=O
TGI [1]: 37.6 µM
TGI [2]: > 100 µM
TGI [3]: > 100 µM
TGI [4]: 44.5 µM
TGI [5]: 52.9 µM
TGI [6]: 51.9 µM
TGI [7]: 62.8 µM
TGI [8]: > 100 µM
TGI [9]: > 100 µM
TGI [10]: > 100 µM
TGI [11]: 43.1 µM
TGI [12]: > 100 µM
TGI [13]: 52.9 µM
TGI [14]: > 100 µM
TGI [15]: 76.6 µM
TGI [16]: 74.2 µM

NC(=Nc1ccc(O)cc1)S(=O)(=O)O
TGI [1]: > 100 µM
TGI [2]: > 100 µM
TGI [3]: > 100 µM
TGI [4]: > 100 µM
TGI [5]: > 100 µM
TGI [6]: > 100 µM
TGI [7]: > 100 µM
TGI [8]: > 100 µM
TGI [9]: > 100 µM
TGI [10]: > 100 µM
TGI [11]: > 100 µM
TGI [12]: > 100 µM
TGI [13]: > 100 µM
TGI [14]: > 100 µM
TGI [15]: > 100 µM
TGI [16]: > 100 µM

[Se]=P(c1ccccc1)(c1ccccc1)c1ccc(C(c2ccccc2)=P(c2ccccc2)(c2ccccc2)c2ccccc2)cc1
TGI [1]: 8.5 µM
TGI [2]: 13.9 µM
TGI [3]: 8.37 µM
TGI [4]: 6.88 µM
TGI [5]: > 33.3 µM
TGI [6]: 12.1 µM
TGI [7]: 1.7 µM
TGI [8]: 10.2 µM
TGI [9]: 12.6 µM
TGI [10]: 16 µM
TGI [11]: 10.2 µM
TGI [12]: 4.57 µM
TGI [13]: 7.07 µM
TGI [14]: 1.06 µM
TGI [15]: 5.24 µM
TGI [16]: 6.21 µM

O=C(CN1CCN(Cc2ccccc2)CC1)N1CCCn2c1nc1ccccc1c2=O
TGI [1]: > 100 µM
TGI [2]: > 100 µM
TGI [3]: > 100 µM
TGI [4]: > 100 µM
TGI [5]: > 100 µM
TGI [6]: > 100 µM
TGI [7]: > 100 µM
TGI [8]: > 100 µM
TGI [9]: > 100 µM
TGI [10]: > 100 µM
TGI [11]: > 100 µM
TGI [12]: > 100 µM
TGI [13]: > 100 µM
TGI [14]: > 100 µM
TGI [15]: > 100 µM
TGI [16]: > 100 µM

Clc1ccc(Cc2nc3ccc(CCN4CCN(c5ccccc5)CC4)cc3[nH]2)cc1
TGI [1]: 38.6 µM
TGI [2]: 32.5 µM
TGI [3]: > 100 µM
TGI [4]: 27 µM
TGI [5]: 36 µM
TGI [6]: 38.4 µM
TGI [7]: 28.4 µM
TGI [8]: 33.8 µM
TGI [9]: 40.6 µM
TGI [10]: 41.6 µM
TGI [11]: 26.5 µM
TGI [12]: 30.6 µM
TGI [13]: 33.6 µM
TGI [14]: > 100 µM
TGI [15]: 47.3 µM
TGI [16]: 30.6 µM

CCOC(=O)c1cc(C(=O)c2ccccc2)n2nc(-c3ccc(Cl)cc3)ccc12
TGI [1]: 81.3 µM
TGI [2]: > 100 µM
TGI [3]: > 100 µM
TGI [4]: 47.8 µM
TGI [5]: > 100 µM
TGI [6]: 34.5 µM
TGI [7]: 43.7 µM
TGI [8]: 78.6 µM
TGI [9]: > 100 µM
TGI [10]: 34.8 µM
TGI [11]: 54.2 µM
TGI [12]: > 100 µM
TGI [13]: 92.3 µM
TGI [14]: > 100 µM
TGI [15]: 41.5 µM
TGI [16]: 32.6 µM
